{
  "source": "patent US5574043A",
  "about": "“Certain [1,2,5-thiadiazol-4-yl]-1-azabicyclo [3.2.1]octane derivatives and their pharmaceutical uses” (Novo Nordisk A/S, priority 1995, dated 1996)",
  "note": "Counter-ions that a name gives are not always drawn.",
  "data": [
    {"molecular_target": "muscarinic acetylcholine receptors", "experiment": "Inhibition of specific binding of 3H-Oxotremorine-M (OXO BINDING) in vitro, rat cortex", "parameters": "species or system male Wistar rats", "settings": "rat cortex homogenate, 3H-Oxotremorine 1.0 nM, 30 min at 25° C., pH 7.4", "from_the_text": "The pharmacological properties of the compounds of the invention can be illustrated by determining their capability to inhibit the specific binding of ^3 H-Oxotremorine-M (^3 H-Oxo). Birdsdall N. J. M., Hulme E. C., and Burgen A. S. V. (1980). \"The Character of Muscarinic Receptors in Different Regions of the Rat Brain\". Proc. Roy. Soc. London (Series B) 207,1.\n^3 H-Oxo labels muscarinic receptor in the CNS (with a preference for agonist domains of the receptors). Three different sites are labelled by ^3 H-Oxo. […] Using the present experimental conditions only the high and medium affinity sites are determined.\nThe inhibitory effects of compounds on ^3 H-Oxo binding reflects the affinity for muscarinic acetylcholine receptors.\nAll preparations are performed at 0°-4° C. unless otherwise indicated. Fresh cortex (0.1-1 g) from male Wistar rats (150-250 g) is homogenized for 5-10 s in 10 ml 20 mM Hepes pH: 7.4, with an Ultra-Turrax homogenizer. The homogenizer, is rinsed with 10 ml of buffer and the combined suspension centrifuged for 15 min at 40,000×g. The pellet is washed three times with buffer. In each step the pellet is homogenized as before in 2×10 ml of buffer and centrifuged for 10 min at 40,000×g.\nThe final pellet is homogenized in 20 mM Hepes pH: 7.4 (100 ml per g of original tissue) and used for binding assay. Aliquots of 0.5 ml is added 25 μl of test solution and 25 μl of ^3 H-Oxotremorine (1.0 nM, final concentration) mixed and incubated for 30 min at 25° C. Non-specific binding is determined in triplicate using arecoline (1 μg/ml, final concentration) as the test substance. After incubation samples are added 5 ml of ice-cold buffer and poured directly onto Whatman GF/C glass fibre filters under suction and immediately washed 2 times with 5 ml of ice-cold buffer. The amount of radioactivity on the filters are determined by conventional liquid scintillation counting. Specific binding is total binding minus non specific binding.\nTest substances are dissolved in 10 ml water (if necessary heated on a steam bath for less than 5 minutes) at a concentration of 2.2 mg/ml.\nThe test value will be given as IC50 (the concentration (ng/ml) of the test substance which inhibits the specific binding of ^3 H-Oxo by 50%).\nIC50 =(applied test substance concentration) [formula] where Co is specific binding in control assays and Cx is the specific binding in the test assay. (The calculations assume normal mass-action kinetics).", "units": {"Inhibition in vitro OXO BINDING IC50": "ng/mL"}, "values": [
      {"compound": "Clc1nsnc1[C@@H]1CN2CCC[C@@H]1C2", "note": "(relative stereo) [Compound 15, Exo-6-(3-chloro-1,2,5-thiadiazol-4-yl)-1-azabicyclo[3.2.1]octane]", "Inhibition in vitro OXO BINDING IC50": 0.61},
      {"compound": "Clc1nsnc1[C@H]1CN2CCC[C@@H]1C2", "note": "(relative stereo) [Compound 16, Endo-6-(3-chloro-1,2,5-thiadiazol-4-yl)-1-azabicyclo[3.2.1]octane-oxalate]", "Inhibition in vitro OXO BINDING IC50": 67},
      {"compound": "CCCCCCSc1nsnc1[C@H]1CN2CCC[C@@H]1C2", "note": "(relative stereo) [Compound 17, Endo-6-(3-hexylthio-1,2,5-thiadiazol-4-yl)-1-azabicyclo[3.2.1]octane oxalate]", "Inhibition in vitro OXO BINDING IC50": 3.2},
      {"compound": "C=CCCCCSc1nsnc1[C@H]1CN2CCC[C@@H]1C2", "note": "(relative stereo) [Compound 18, Endo-6-(3-(5-hexenylthio)-1,2,5-thiadiazol-4-yl)-1-azabicyclo[3.2.1]octane oxalate]", "Inhibition in vitro OXO BINDING IC50": 7.5},
      {"compound": "CCOc1nsnc1[C@H]1CN2CCC[C@@H]1C2", "note": "(relative stereo) [Compound 20, Endo-6-(3-ethoxy-1,2,5-thiadiazol-4-yl)-1-azabicyclo[3.2.1]octane oxalate]", "Inhibition in vitro OXO BINDING IC50": 11},
      {"compound": "Clc1nsnc1[C@@H]1CN2CC[C@@H]1C2", "note": "(relative stereo) [Compound 21, Exo-3-(3-chloro-1,2,5-thiadiazol-4-yl)-1-azabicyclo[2.2.1]heptane oxalate]", "Inhibition in vitro OXO BINDING IC50": 0.96},
      {"compound": "Clc1nsnc1[C@H]1CN2CC[C@@H]1C2", "note": "(relative stereo) [Compound 22, Endo-3-(3-chloro-1,2,5-thiadiazol-4-yl)-1-azabicyclo[2.2.1]heptane oxalate]", "Inhibition in vitro OXO BINDING IC50": 3.4},
      {"compound": "COc1nsnc1[C@@H]1CN2CC[C@H]1C2", "note": "(relative stereo) [Compound 23, Endo-3-(3-methoxy-1,2,5-thiadiazol-4-yl)-1-azabicyclo[2.2.1]heptane oxalate]", "Inhibition in vitro OXO BINDING IC50": 43},
      {"compound": "CCCCSc1nsnc1[C@H]1CN2CCC[C@@H]1C2", "note": "(relative stereo) [Compound 24, Endo-6-(3-butylthio-1,2,5-thiadiazol-4-yl)-1-azabicyclo[3.2.1]octane oxalate]", "Inhibition in vitro OXO BINDING IC50": 0.52},
      {"compound": "CCSc1nsnc1[C@H]1CN2CCC[C@@H]1C2", "note": "(relative stereo) [Compound 25, Endo-6-(3-ethylthio-1,2,5-thiadiazol-4-yl)-1-azabicyclo[3.2.1]octane oxalate]", "Inhibition in vitro OXO BINDING IC50": 1.9},
      {"compound": "CCCCCSc1nsnc1[C@H]1CN2CCC[C@@H]1C2", "note": "(relative stereo) [Compound 26, Endo-6-(3-pentylthio-1,2,5-thiadiazol-4-yl)-1-azabicyclo[3.2.1]octane oxalate]", "Inhibition in vitro OXO BINDING IC50": 1.4},
      {"compound": "c1ccc(CCCSc2nsnc2[C@H]2CN3CCC[C@@H]2C3)cc1", "note": "(relative stereo) [Compound 27, Endo-6-(3-(3-phenylpropylthio)-1,2,5-thiadiazol-4-yl)-1-azabicyclo[3.2.1]octane oxalate]", "Inhibition in vitro OXO BINDING IC50": 17},
      {"compound": "N#Cc1ccc(CSc2nsnc2[C@H]2CN3CCC[C@@H]2C3)cc1", "note": "(relative stereo) [Compound 28, Endo-6-(3-(4-cyanobenzylthio)-1,2,5-thiadiazol-4-yl)-1-azabicyclo[3.2.1]octane oxalate]", "Inhibition in vitro OXO BINDING IC50": 1.9},
      {"compound": "CCCCCCSc1nsnc1[C@H]1CN2CCC[C@H]1C2", "note": "(relative stereo) [Compound 29, Exo-6-(3-hexylthio-1,2,5-thiadiazol-4-yl)-1-azabicyclo[3.2.1]octane oxalate]", "Inhibition in vitro OXO BINDING IC50": 0.39},
      {"compound": "CCCCSc1nsnc1[C@H]1CN2CCC[C@H]1C2", "note": "(relative stereo) [Compound 30, Exo-6-(3-butylthio-1,2,5-thiadiazol-4-yl)-1-azabicyclo[3.2.1]octane oxalate]", "Inhibition in vitro OXO BINDING IC50": 0.13}
    ]}
  ]
}
